From patent US20120165304A1, “6,7,8,9-Tetrahydro-5H-1,4,7,10a-tetraaza-cyclohept[f]indene derivatives, pharmaceutical compositions containing these compounds, their use and processes for preparing them” (BOEHRINGER INGELHEIM INTERNATIONAL GMBH, priority 2008, published 2012)

Target: human 5-HT2C receptor (Homo sapiens, UniProt P28335, I156V/I160V/N158S)
Experiment: cell-based

human 5-HT2C receptor, sequence (P28335 33-458 I156V/N158S/I160V limits assumed): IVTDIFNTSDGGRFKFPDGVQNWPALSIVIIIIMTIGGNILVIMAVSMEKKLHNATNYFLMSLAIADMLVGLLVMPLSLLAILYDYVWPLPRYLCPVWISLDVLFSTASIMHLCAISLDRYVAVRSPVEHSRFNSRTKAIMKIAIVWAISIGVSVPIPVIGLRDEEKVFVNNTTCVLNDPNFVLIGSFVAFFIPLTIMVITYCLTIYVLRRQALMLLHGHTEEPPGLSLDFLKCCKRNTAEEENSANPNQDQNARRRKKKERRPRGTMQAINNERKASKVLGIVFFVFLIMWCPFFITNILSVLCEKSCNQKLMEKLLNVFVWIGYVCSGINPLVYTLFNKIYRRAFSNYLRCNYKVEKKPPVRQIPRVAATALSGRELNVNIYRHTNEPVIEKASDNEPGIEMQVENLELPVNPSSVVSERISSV

SMILES | EC50 [nM]
O=C(C1CN(c2c3c(nc4ccnn24)CCNCC3)C1)N1CCC(Oc2ccc(F)c(F)c2)CC1 [Example 31.146] | 91
FC(F)(F)Oc1ccc(OC2CN(c3c4c(nc5ccnn35)CCNCC4)C2)cc1 [Example 35.32] | 411
CC(C)(C)C1CCN(C(=O)C2CN(c3c4c(nc5ccnn35)CCNCC4)C2)CC1 [Example 31.121] | 22
Cn1c(C2CN(c3c4c(nc5ccnn35)CCNCC4)C2)nc2ccc(F)cc21 [Example 34.4] | 24
C#CC(C)NC(=O)C1CN(c2c3c(nc4ccnn24)CCNCC3)C1 (stereo not shown) [Example 37.109] | 79
Cc1ccc(CN(C)C(=O)C2CN(c3c4c(nc5ccnn35)CCNCC4)C2)cc1 [Example 31.50] | 51
c1cnn(CC2CN(c3c4c(nc5ccnn35)CCNCC4)C2)c1 [Example 17, 10-(3-Pyrazol-1-ylmethyl-azetidin-1-yl)-6,7,8,9-tetrahydro-5H-1,4,7,10a-tetraaza-cyclohepta[f]indene] | 15
CN1CCc2nc3ccnn3c(N3CC(C(=O)N4CC(N(C)C)C4)C3)c2CC1 [Example 36.48] | 269
O=C(C1CN(c2c3c(nc4ccnn24)CCNCC3)C1)N1CCCC1c1nccs1 (stereo not shown) [Example 31.52] | 199
O=C(C1CN(c2c3c(nc4ccnn24)CCNCC3)C1)N1CCC(c2cccc(F)c2)CC1 [Example 31.211] | 31
Cc1cccnc1CN(C)C(=O)C1CN(c2c3c(nc4ccnn24)CCNCC3)C1 [Example 31.196] | 195
O=C(NCC1CCCCO1)C1CN(c2c3c(nc4ccnn24)CCNCC3)C1 (stereo not shown) [Example 37.55] | 66
CN1C(C)(C)CC(NC(=O)C2CN(c3c4c(nc5ccnn35)CCNCC4)C2)CC1(C)C [Example 37.106] | 9
Brc1ccccc1OC1CN(c2c3c(nc4ccnn24)CCNCC3)C1 [Example 35.7] | 67
CC(C)c1ccc(CN(C)C(=O)C2CN(c3c4c(nc5ccnn35)CCNCC4)C2)cc1 [Example 31.163] | 108
O=C(C1CN(c2c3c(nc4ccnn24)CCNCC3)C1)N1CCC(c2ccc(F)cc2F)CC1 [Example 31.114] | 38
CN(Cc1ccc(F)cc1)C(=O)C1CN(c2c3c(nc4ccnn24)CCNCC3)C1 [Example 31.96] | 26
CN(CCc1cccc(C(F)(F)F)c1)C(=O)C1CN(c2c3c(nc4ccnn24)CCNCC3)C1 [Example 31.89] | 133
Cc1ccccc1OCC1CN(c2c3c(nc4ccnn24)CCNCC3)C1 [Example 15.1] | 6
CN(C(=O)C1CN(c2c3c(nc4ccnn24)CCNCC3)C1)C1CCCCC1 [Example 31.179] | 1690
CN1CCc2nc3ccnn3c(N3CC(C(=O)NC4CC(C)(C)NC(C)(C)C4)C3)c2CC1 [Example 36.9] | 379
Fc1cc(OCC2CN(c3c4c(nc5ccnn35)CCNCC4)C2)ccc1Cl [Example 15.13] | 28
CN1CCc2nc3ccnn3c(N3CC(C(=O)N4CCN(C5CCCCC5)CC4)C3)c2CC1 [Example 36.54] | 97
FC(F)(F)c1cnc(OC2CN(c3c4c(nc5ccnn35)CCNCC4)C2)c(Cl)c1 [Example 20.7] | 424
CC(C)CC(=O)N1CCN(C(=O)C2CN(c3c4c(nc5ccnn35)CCNCC4)C2)CC1 [Example 37.57] | 27
O=C(NC1CCCC(C(F)(F)F)C1)C1CN(c2c3c(nc4ccnn24)CCNCC3)C1 (stereo not shown) [Example 37.59] | 47
O=C(C1CN(c2c3c(nc4ccnn24)CCNCC3)C1)N1CCC(O)(c2cccc(C(F)(F)F)c2)CC1 [Example 31.226] | 74

SMILES | EC50 [nM]
CN1CCC2(CCN(C(=O)C3CN(c4c5c(nc6ccnn46)CCNCC5)C3)CC2)C1=O [Example 31.151] | 319
O=C(NC1CCC(C(F)(F)F)CC1)C1CN(c2c3c(nc4ccnn24)CCNCC3)C1 (stereo not shown) [Example 37.60] | 49
CN1CCc2nc3ccnn3c(N3CC(C(=O)N4CCC(F)(F)CC4)C3)c2CC1 [Example 36.23] | 124
FC(F)(F)c1cccc(OC2CN(c3c4c(nc5ccnn35)CCNCC4)C2)c1 [Example 1.7] | 42
CN1CCc2nc3ccnn3c(N3CC(C(=O)N4CCC(C#N)C4)C3)c2CC1 (stereo not shown) [Example 36.44] | 214
O=C(NCCC(F)(F)F)C1CN(c2c3c(nc4ccnn24)CCNCC3)C1 [Example 37.63] | 84
c1nn2c(N3CCC3)c3c(nc2c1C1CC1)CCNCC3 [Example 29, 10-Azetidin-1-yl-3-cyclopropyl-6,7,8,9-tetrahydro-5H-1,4,7,10a-tetraaza-cyclohepta[f]indene] | 81
CC1(C(=O)N2CCC3(CCOC3)CC2)CN(c2c3c(nc4ccnn24)CCNCC3)C1 [Example 32.4] | 4270
COC1CN(c2c3c(nc4ccnn24)CCNCC3)C1 [Example 16.1] | 82
O=C(NC1CCOC1)C1CN(c2c3c(nc4ccnn24)CCNCC3)C1 (stereo not shown) [Example 37.67] | 67
CCC(C)(C)NC(=O)C1CN(c2c3c(nc4ccnn24)CCNCC3)C1 [Example 37.54] | 118
CC1(C)CCN(C(=O)C2CN(c3c4c(nc5ccnn35)CCNCC4)C2)C1 [Example 31.53] | 8
O=C(C1CN(c2c3c(nc4ccnn24)CCNCC3)C1)N1CCC(c2ccccc2F)C1 (stereo not shown) [Example 31.116] | 60
c1cncc(Cn2c(C3CN(c4c5c(nc6ccnn46)CCNCC5)C3)nc3ccccc32)c1 [Example 34.27] | 46
C[C@@H](NC(=O)C1CN(c2c3c(nc4ccnn24)CCNCC3)C1)C1CCCCC1 [Example 31.188] | 101
N#Cc1cccc(OC2CN(c3c4c(nc5ccnn35)CCNCC4)C2)c1 [Example 35.4] | 81
COc1ccc(OC2CN(c3c4c(nc5ccnn35)CCNCC4)C2)c(Cl)c1 [Example 35.19] | 87
O=C(NC1CCc2ccccc21)C1CN(c2c3c(nc4ccnn24)CCNCC3)C1 (stereo not shown) [Example 31.32] | 49
CN1CCC2(CCN(c3c4c(nc5ccnn35)CCNCC4)CC2)C1=O [Example 1.66] | 1660
CN(C)[C@H]1CC[C@H](NC(=O)C2CN(c3c4c(nc5ccnn35)CCNCC4)C2)CC1 [Example 37.98] | 25
O=C(C1CN(c2c3c(nc4ccnn24)CCNCC3)C1)N1CCc2c(F)cccc2C1 [Example 31.204] | 33
CN(C)CCN(C)C(=O)C1CN(c2c3c(nc4ccnn24)CCN(C)CC3)C1 [Example 36.2] | 563
Clc1cccc(OC2CN(c3c4c(nc5ccnn35)CCNCC4)C2)c1 [Example 35.50] | 208
c1ccc(CCn2c(C3CN(c4c5c(nc6ccnn46)CCNCC5)C3)nc3ccccc32)cc1 [Example 34.36] | 353
O=C(C1CCCCC1)N1CCN(C(=O)C2CN(c3c4c(nc5ccnn35)CCNCC4)C2)CC1 [Example 37.101] | 70
Cc1cnn2c(N3CC(C(=O)N4CCC5(CCOC5)CC4)C3)c3c(nc12)CCNCC3 [Example 31.240] | 29
O=C(C1CN(c2c3c(nc4ccnn24)CCNCC3)C1)N1CCN(c2ccccc2)CC1 [Example 37.34] | 6

SMILES | EC50 [nM]
Cc1ccccc1N1CCN(C(=O)C2CN(c3c4c(nc5ccnn35)CCNCC4)C2)CC1 [Example 37.37] | 9
O=C(N[C@H]1C[C@@H]1c1ccccc1)C1CN(c2c3c(nc4ccnn24)CCNCC3)C1 [Example 31.28] | 314
Fc1ccc(OC2CN(c3c4c(nc5ccnn35)CCNCC4)C2)cc1F [Example 35.55] | 115
O=C(NC1CCCCC1C(F)(F)F)C1CN(c2c3c(nc4ccnn24)CCNCC3)C1 (stereo not shown) [Example 37.58] | 224
O=C(C1CN(c2c3c(nc4ccnn24)CCNCC3)C1)N1CCC(F)(F)CC1 [Example 31.203] | 67
CN(Cc1c(Cl)cccc1Cl)C(=O)C1CN(c2c3c(nc4ccnn24)CCNCC3)C1 [Example 31.160] | 458
CN(Cc1cccc(Cl)c1Cl)C(=O)C1CN(c2c3c(nc4ccnn24)CCNCC3)C1 [Example 31.168] | 107
CCCCN1CCN(C(=O)C2CN(c3c4c(nc5ccnn35)CCNCC4)C2)CC1=O [Example 37.51] | 11
CN(Cc1ccc2ccccc2c1)C(=O)C1CN(c2c3c(nc4ccnn24)CCNCC3)C1 [Example 31.169] | 33
FC(F)(F)c1cccc(OC2CN(c3c4c(nc5ccnn35)CCNCC4)C2)n1 [Example 20.10] | 181
O=C(C1CN(c2c3c(nc4ccnn24)CCNCC3)C1)N1CCC2(CCCc3ccccc32)C1 (stereo not shown) [Example 31.222] | 96
O=C(C1CN(c2c3c(nc4ccnn24)CCNCC3)C1)N1CCC2CC2(c2ccccc2)C1 (stereo not shown) [Example 31.233] | 106
CN1CCc2nc3ccnn3c(N3CC(C(=O)N4CCC5(CCC5)C4)C3)c2CC1 [Example 36.34] | 885
CC(C)N1CCN(C(=O)C2CN(c3c4c(nc5ccnn35)CCN(C)CC4)C2)CC1 [Example 36.6] | 67
O=C(C1CN(c2c3c(nc4ccnn24)CCNCC3)C1)N1CCOC(c2ccccc2)C1 (stereo not shown) [Example 31.8] | 94
O=C(NC1(c2ccccc2)CC1)C1CN(c2c3c(nc4ccnn24)CCNCC3)C1 [Example 31.92] | 921
CN(Cc1cccc(C(F)(F)F)c1)C(=O)C1CN(c2c3c(nc4ccnn24)CCNCC3)C1 [Example 31.149] | 45
O=C(Nc1ccccc1)C1CN(c2c3c(nc4ccnn24)CCNCC3)C1 [Example 31.16] | 2390
CC(C)C(C)NC(=O)C1CN(c2c3c(nc4ccnn24)CCNCC3)C1 (stereo not shown) [Example 37.77] | 95
CCN1CCN(C(=O)C2CN(c3c4c(nc5ccnn35)CCNCC4)C2)CC1 [Example 37.1] | 3
O=C(C1CN(c2c3c(nc4ccnn24)CCNCC3)C1)N1CCCC2(CCCc3ccccc32)C1 (stereo not shown) [Example 31.172] | 765
CC(CC1CCCCC1)NC(=O)C1CN(c2c3c(nc4ccnn24)CCNCC3)C1 (stereo not shown) [Example 37.108] | 72
O=C(C1CN(c2c3c(nc4ccnn24)CCNCC3)C1)N1CC[C@H]2CCCC[C@@H]2C1 [Example 31.130] | 57
CC1(C(=O)N2CCC(C(F)(F)F)CC2)CN(c2c3c(nc4ccnn24)CCNCC3)C1 [Example 32.2] | 8290
O=C(NC1CCCCC1)C1CN(c2c3c(nc4ccnn24)CCNCC3)C1 [Example 37.71] | 114
